Source: patent US11117900B2 (Vertex Pharmaceuticals Incorporated, priority 2012, dated 2021)

Tested on: HCT116 colorectal cancer cells
Assay: Cisplatin sensitization assay (96 h MTS cell viability);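 also: compound concentration needed to lower the IC50 of Cisplatin alone by a set fold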
Format: cell-based
Conditions: Cisplatin sensitization value
Method in brief: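 The MTS viability read, after 1 h with reagent, followed 96 h of co-treatment at 37° C. in 5% CO2. Both compound and cisplatin were titrated 2-fold from a 10 μM top final concentration in a complete concentration matrix on HCT116 cells. Scores +++/++/+ reflect cisplatin sensitization value ranges.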

Row | Compound | Cisplatin Sensitization Assay
1 | Nc1nn2cc(F)cnc2c1C(=O)Nc1cncc(F)c1N1CCN(CC(=O)N2CCC2)CC1 [I-N-228, 2-amino-N-(4-(4-(2-(azetidin-1-yl)-2-oxoethyl)piperazin-1-yl)-5-fluoropyridin-3-yl)-6-fluoropyrazolo[1,5-a]pyrimidine-3-carboxamide] | +++ (Compounds with a Cisplatin sensitization value of <0.02 μM are marked with “+++.”)
2 | CN1CC2(CCN(c3c(F)cncc3NC(=O)c3c(N)nn4cc(F)cnc34)CC2)OC1=O [I-N-229, 2-amino-6-fluoro-N-(5-fluoro-4-(3-methyl-2-oxo-1-oxa-3,8-diazaspiro[4.5]decan-8-yl)pyridin-3-yl)pyrazolo[1,5-a]pyrimidine-3-carboxamide] | +++ (Compounds with a Cisplatin sensitization value of <0.02 μM are marked with “+++.”)
3 | Nc1nn2cc(F)cnc2c1C(=O)Nc1cnccc1N1CCC(N2CCCC2=O)CC1 [I-N-230, 2-amino-6-fluoro-N-(4-(4-(2-oxopyrrolidin-1-yl)piperidin-1-yl)pyridin-3-yl)pyrazolo[1,5-a]pyrimidine-3-carboxamide] | +++ (Compounds with a Cisplatin sensitization value of <0.02 μM are marked with “+++.”)
4 | CN1CC2(CCC1=O)CCN(c1ccncc1NC(=O)c1c(N)nn3cc(F)cnc13)CC2 [I-N-231, 2-amino-6-fluoro-N-(4-(2-methyl-3-oxo-2,9-diazaspiro[5.5]undecan-9-yl)pyridin-3-yl)pyrazolo[1,5-a]pyrimidine-3-carboxamide] | +++ (Compounds with a Cisplatin sensitization value of <0.02 μM are marked with “+++.”)
5 | Nc1nn2cc(F)cnc2c1C(=O)Nc1cncc(F)c1N1CC(=O)N2CCCC2C1 (stereo not drawn) [I-N-232, 2-amino-6-fluoro-N-(5-fluoro-4-(4-oxohexahydropyrrolo[1,2-a]pyrazin-2(1H)-yl)pyridin-3-yl)pyrazolo[1,5-a]pyrimidine-3-carboxamide] | ++ (Compounds with a Cisplatin sensitization value >0.02 μM but <0.2 μM are marked with “++.”)
6 | CN1CCN2CCN(c3ccncc3NC(=O)c3c(N)nn4cc(F)cnc34)CC2C1=O (stereo not drawn) [I-N-233, 2-amino-6-fluoro-N-(4-(8-methyl-9-oxohexahydro-1H-pyrazino[1,2-a]pyrazin-2(6H)-yl)pyridin-3-yl)pyrazolo[1,5-a]pyrimidine-3-carboxamide] | ++ (Compounds with a Cisplatin sensitization value >0.02 μM but <0.2 μM are marked with “++.”)
7 | CN(C)C(=O)C1CN(c2ccncc2NC(=O)c2c(N)nn3cc(F)cnc23)CCO1 (stereo not drawn) [I-N-234, 4-(3-(2-amino-6-fluoropyrazolo[1,5-a]pyrimidine-3-carboxamido)pyridin-4-yl)-N,N-dimethylmorpholine-2-carboxamide] | + (Compounds with a Cisplatin sensitization value >0.2 μM but <5 μM are marked with “+.”)
8 | CN1C(=O)CCC12CCN(c1ccncc1NC(=O)c1c(N)nn3cc(F)cnc13)CC2 [I-N-235, 2-amino-6-fluoro-N-(4-(1-methyl-2-oxo-1,8-diazaspiro[4.5]decan-8-yl)pyridin-3-yl)pyrazolo[1,5-a]pyrimidine-3-carboxamide] | ++ (Compounds with a Cisplatin sensitization value >0.02 μM but <0.2 μM are marked with “++.”)
9 | CN1CC2(CCN(c3ccncc3NC(=O)c3c(N)nn4cc(F)cnc34)CC2)CC1=O [I-N-236, 2-amino-6-fluoro-N-(4-(2-methyl-3-oxo-2,8-diazaspiro[4.5]decan-8-yl)pyridin-3-yl)pyrazolo[1,5-a]pyrimidine-3-carboxamide] | +++ (Compounds with a Cisplatin sensitization value of <0.02 μM are marked with “+++.”)
10 | Cc1cncc(NC(=O)c2c(N)nn3cc(F)cnc23)c1-n1nccc1C [I-N-237] | + (Compounds with a Cisplatin sensitization value >0.2 μM but <5 μM are marked with “+.”)
11 | Nc1nn2cc(F)cnc2c1C(=O)Nc1cnccc1N1CCN2C(=O)OCC2C1 (stereo not drawn) [I-N-238, 2-amino-6-fluoro-N-(4-(3-oxotetrahydro-1H-oxazolo[3,4-a]pyrazin-7(3H)-yl)pyridin-3-yl)pyrazolo[1,5-a]pyrimidine-3-carboxamide] | ++ (Compounds with a Cisplatin sensitization value >0.02 μM but <0.2 μM are marked with “++.”)
12 | Nc1nn2cc(F)cnc2c1C(=O)Nc1cncc(F)c1N1CCC2(CC1)COC2 [I-N-239, 2-amino-6-fluoro-N-(5-fluoro-4-(2-oxa-7-azaspiro[3.5]nonan-7-yl)pyridin-3-yl)pyrazolo[1,5-a]pyrimidine-3-carboxamide] | +++ (Compounds with a Cisplatin sensitization value of <0.02 μM are marked with “+++.”)
13 | CN1CCN2CCN(c3c(F)cncc3NC(=O)c3c(N)nn4cc(F)cnc34)CC2C1=O (stereo not drawn) [I-N-240, 2-amino-6-fluoro-N-(5-fluoro-4-(8-methyl-9-oxohexahydro-1H-pyrazino[1,2-a]pyrazin-2(6H)-yl)pyridin-3-yl)pyrazolo[1,5-a]pyrimidine-3-carboxamide] | ++ (Compounds with a Cisplatin sensitization value >0.02 μM but <0.2 μM are marked with “++.”)
14 | Nc1nn2cc(F)cnc2c1C(=O)Nc1cnccc1N1CCC(c2ncon2)CC1 [I-N-241, N-(4-(4-(1,2,4-oxadiazol-3-yl)piperidin-1-yl)pyridin-3-yl)-2-amino-6-fluoropyrazolo[1,5-a]pyrimidine-3-carboxamide] | +++ (Compounds with a Cisplatin sensitization value of <0.02 μM are marked with “+++.”)
15 | Cc1ncnn1-c1c(F)cncc1NC(=O)c1c(N)nn2cc(F)cnc12 [I-N-242, 2-amino-6-fluoro-N-(5-fluoro-4-(5-methyl-1H-1,2,4-triazol-1-yl)pyridin-3-yl)pyrazolo[1,5-a]pyrimidine-3-carboxamide] | + (Compounds with a Cisplatin sensitization value >0.2 μM but <5 μM are marked with “+.”)
16 | CC1(S(C)(=O)=O)CCN(c2ccncc2NC(=O)c2c(N)nn3cc(F)cnc23)CC1 [I-N-243, 2-amino-6-fluoro-N-(4-(4-methyl-4-(methylsulfonyl)piperidin-1-yl)pyridin-3-yl)pyrazolo[1,5-a]pyrimidine-3-carboxamide] | +++ (Compounds with a Cisplatin sensitization value of <0.02 μM are marked with “+++.”)
17 | Nc1nn2cc(F)cnc2c1C(=O)Nc1cnccc1N1CCN2C(=O)CCCC2C1 (stereo not drawn) [I-N-244, 2-amino-6-fluoro-N-(4-(6-oxohexahydro-1H-pyrido[1,2-a]pyrazin-2(6H)-yl)pyridin-3-yl)pyrazolo[1,5-a]pyrimidine-3-carboxamide] | +++ (Compounds with a Cisplatin sensitization value of <0.02 μM are marked with “+++.”)
18 | CC(C)N1CCN2CCN(c3ccncc3NC(=O)c3c(N)nn4cc(F)cnc34)CC2C1=O (stereo not drawn) [I-N-245, 2-amino-6-fluoro-N-(4-(8-isopropyl-9-oxohexahydro-1H-pyrazino[1,2-a]pyrazin-2(6H)-yl)pyridin-3-yl)pyrazolo[1,5-a]pyrimidine-3-carboxamide] | ++ (Compounds with a Cisplatin sensitization value >0.02 μM but <0.2 μM are marked with “++.”)
19 | Nc1nn2cc(F)cnc2c1C(=O)Nc1cncc(F)c1N1CCCC1 [I-N-246, 2-amino-6-fluoro-N-(5-fluoro-4-(pyrrolidin-1-yl)pyridin-3-yl)pyrazolo[1,5-a]pyrimidine-3-carboxamide] | ++ (Compounds with a Cisplatin sensitization value >0.02 μM but <0.2 μM are marked with “++.”)
20 | Nc1nn2cc(F)cnc2c1C(=O)Nc1cnccc1N1CCN2[C@@H](CCS2(=O)=O)C1 [I-N-247, (S)-2-amino-N-(4-(1,1-dioxidotetrahydro-2H-isothiazolo[2,3-a]pyrazin-5(3H)-yl)pyridin-3-yl)-6-fluoropyrazolo[1,5-a]pyrimidine-3-carboxamide] | +++ (Compounds with a Cisplatin sensitization value of <0.02 μM are marked with “+++.”)
21 | Nc1nn2cc(F)cnc2c1C(=O)Nc1cncc(F)c1N1CCN2C(=O)OC[C@@H]2C1 [I-N-248, (S)-2-amino-6-fluoro-N-(5-fluoro-4-(3-oxotetrahydro-1H-oxazolo[3,4-a]pyrazin-7(3H)-yl)pyridin-3-yl)pyrazolo[1,5-a]pyrimidine-3-carboxamide] | ++ (Compounds with a Cisplatin sensitization value >0.02 μM but <0.2 μM are marked with “++.”)
22 | Nc1nn2cc(F)cnc2c1C(=O)Nc1cnccc1N1CCN(C(=O)C2COC2)CC1 [I-N-249] | +++ (Compounds with a Cisplatin sensitization value of <0.02 μM are marked with “+++.”)
23 | Nc1nn2cc(F)cnc2c1C(=O)Nc1cncc(F)c1N1CCS(=O)(=O)CC1 [I-N-250, 2-amino-N-(4-(1,1-dioxidothiomorpholino)-5-fluoropyridin-3-yl)-6-fluoropyrazolo[1,5-a]pyrimidine-3-carboxamide] | ++ (Compounds with a Cisplatin sensitization value >0.02 μM but <0.2 μM are marked with “++.”)
24 | CC(=O)N1CC2(CCN(c3ccncc3NC(=O)c3c(N)nn4cc(F)cnc34)CC2)C1 [I-N-251, N-(4-(2-acetyl-2,7-diazaspiro[3.5]nonan-7-yl)pyridin-3-yl)-2-amino-6-fluoropyrazolo[1,5-a]pyrimidine-3-carboxamide] | +++ (Compounds with a Cisplatin sensitization value of <0.02 μM are marked with “+++.”)
25 | CC1(C)CN(c2ccncc2NC(=O)c2c(N)nn3cc(F)cnc23)CCS1(=O)=O [I-N-252, 2-amino-N-(4-(2,2-dimethyl-1,1-dioxidothiomorpholino)pyridin-3-yl)-6-fluoropyrazolo[1,5-a]pyrimidine-3-carboxamide] | +++ (Compounds with a Cisplatin sensitization value of <0.02 μM are marked with “+++.”)
26 | Nc1nn2cc(F)cnc2c1C(=O)Nc1cnccc1N1CCCC2(COC2)C1 [I-N-253, N-(4-(2-oxa-6-azaspiro[3.5]nonan-6-yl)pyridin-3-yl)-2-amino-6-fluoropyrazolo[1,5-a]pyrimidine-3-carboxamide] | +++ (Compounds with a Cisplatin sensitization value of <0.02 μM are marked with “+++.”)
27 | Nc1nn2cc(F)cnc2c1C(=O)Nc1cnccc1N1CCC2(CCNC2)CC1 [I-N-255, N-(4-(2,8-diazaspiro[4.5]decan-8-yl)pyridin-3-yl)-2-amino-6-fluoropyrazolo[1,5-a]pyrimidine-3-carboxamide] | ++ (Compounds with a Cisplatin sensitization value >0.02 μM but <0.2 μM are marked with “++.”)
